Data reported in article PMC7699892, “Repositioned Drugs for Chagas Disease Unveiled via Structure-Based Drug Repositioning” (International Journal of Molecular Sciences, 2020).
Like-named read-outs stand apart in the source and are kept apart here.

Legend:
[1] = system: T. brucei; set-up: method as in Nenortas et al. 70; settings: ref Nenortas et al. 70; read-out: EC50, active against T. brucei in vitro; cited from earlier work
[2] = system: T. cruzi epimastigote (INC-5 strain); assay: in vitro evaluation against epimastigotes, INC-5 strain (resazurin); assay type: cell-based; settings: Trypanosoma cruzi, 48 h at 28 °C
Description: (§1) The high-priority hit drugs were subjected to experimental validation in vitro, ex vivo, and in vivo, together with a cytotoxicity assay. Ninoa and INC-5 strains of T. cruzi were used in this study. […] In vitro evaluation of different FDA-approved drugs against Trypanosoma cruzi epimastigotes. The epimastigote stage of Ninoa and INC5 strains of T. cruzi were used to evaluated the in vitro trypanocidal activity of different FDA-approved drugs. Both strains were maintained in liver infusion tryptose (LIT) medium, supplemented with 10% fetal bovine serum (FBS) and 0.1% penicillin–streptomycin. They were preserved by transferring 1 × 10^6 parasites/mL into a new culture medium every week. […] All compounds were initially prepared at 10 mg/mL, using dimethyl sulfoxide (DMSO) as diluent. Serial dilutions were performed using complemented LIT medium until concentrations of 100 to 0.46 µg/mL of each drug were obtained. […] After the incubation period, 20 µL of 2.5 mM resazurin solution were added to each well and incubated for 3 h. All assays were carried out in triplicate.

[3] = system: T. cruzi blood trypomastigote (INC-5 strain); assay: ex vivo evaluation against blood trypomastigotes, INC-5 strain; assay type: cell-based; settings: Trypanosoma cruzi
Description: (§2) The high-priority hit drugs were subjected to experimental validation in vitro, ex vivo, and in vivo, together with a cytotoxicity assay. Ninoa and INC-5 strains of T. cruzi were used in this study. The Ninoa strain was obtained in 1986 by xenodiagnoses from an acute case of Chagas’ disease in Oaxaca, Mexico, whereas the INC-5 strain was obtained in 1997 from a chronic case of Chagas’ disease in a person in Guanajuato, Mexico.
(§3) Ex vivo evaluation of different FDA-approved drugs against Trypanosoma cruzi blood trypomastigotes. The ex vivo evaluation of the trypanocidal activity of the FDA-approved drugs was carried out according to the methodology described above. Blood from parasite infected animals was obtained from intracardiac puncture and diluted with phosphate-buffered saline (PBS), pH 7.2, until a concentration of 2 × 10^6 blood trypomastigotes/mL was obtained. From this, 195 µL of blood/well was placed in a 96-well plate and incubated at 4 °C for 24 h with 5 µL of each drug tested at different concentrations (5 µg/mL to […]). […] After incubation, live parasites were counted in a Neubauer chamber and the IC50 was calculated. Three independent experiments by triplicate were performed.

[4] = system: T. cruzi INC-5 strain; assay: in vivo short-term trypanocidal activity (parasitemia) in infected CD1 mice, INC-5 strain; set-up: species or system Trypanosoma cruzi in CD1 mice
Protocol: (§4) Parasitemia was monitored at 2, 4, 6, and 8 h after administration (see Figure 2).
(§5) CD1 strain mice, 6–8 weeks old, were used to maintain Ninoa and INC-5 strains of T. cruzi. Animals were given by the University of Science and Arts of Chiapas. To maintain the strains, animals were intraperitoneally inoculated every 14 days with 1 × 10^5 blood trypomastigote, obtained from parasite-infected mice. Parasitemia was monitored every three days by the Pizzi method. For this, 5 µL of blood from the caudal vein of infected mice were deposited on a slide and evenly distributed with an 18 × 18 mm coverslip. Parasite counting was performed by observing 15 microscopic fields using a 40 × objective lens. For the in vivo short term evaluation of the trypanocidal activity of the FDA-approved drugs, six groups of six CD1 mice each with homogeneous weight and parasitemia were used.
(§6) In vivo short-term evaluation of the trypanocidal activity of the FDA-approved drugs. Six groups of six CD1 female mice were infected with blood trypomastigotes of Ninoa and INC-5 strains following the methodology previously described in Romanha et al. and in Díaz-Chiguer et al.. At day 13 post-infection, when the infected mice reached an average of 5 × 10^6 parasites/mL, a single dose of the FDA-approved drugs at 100 mg/kg body weight was orally administered. Parasitemia was monitored following the Pizzi method at 2, 4, 6, and 8 h post-treatment […] using mineral oil as a vehicle. […] Mice examination was performed as stated in the Norma Official Mexicana (NOM-062-Z00-1999), published on August 2009.

[5] = system: T. cruzi Ninoa strain; assay: in vivo short-term trypanocidal activity (parasitemia) in infected CD1 mice, Ninoa strain; set-up: species or system Trypanosoma cruzi in CD1 mice
Protocol: as §4, §5, §6

[6] = system: T. cruzi epimastigote (Ninoa strain); assay: in vitro evaluation against epimastigotes, Ninoa strain (resazurin); assay type: cell-based; settings: Trypanosoma cruzi, 48 h at 28 °C
Description: as §1

[7] = system: T. cruzi blood trypomastigote (Ninoa strain); assay: ex vivo evaluation against blood trypomastigotes, Ninoa strain; assay type: cell-based; settings: Trypanosoma cruzi, 24 h at 4 °C
Description: as §2, §3

[8] = system: T. cruzi; set-up: method as in PMID 25033456; settings: read-out: EC50, inhibition of T. cruzi growth in vitro; cited from earlier work; for Trypan. Activity: key: ? indicates unknown activity; + indicates indirect evidence of activity; ++ indicates direct evidence of activity
[9] = system: T. cruzi; set-up: method as in per drug in column Reference of Table 2; settings: class of literature evidence of trypanocidal activity; ref per drug in Table 2; cited from earlier work; for Trypan. Activity: key: ? indicates unknown activity; + indicates indirect evidence of activity; ++ indicates direct evidence of activity
[10] = molecular target: T. cruzi DHFR; set-up: method as in PMID 12084467; settings: read-out: Ki, inhibitor of T. cruzi DHFR; cited from earlier work
[11] = system: T. cruzi reverse transcriptase; set-up: method as in PMID 8913446; settings: cited from earlier work

O=C(O)c1cn(C2CC2)c2cc(N3CCNCC3)c(F)cc2c1=O [Ciprofloxacin]
EC50 [1]: 52 µM
IC50 [2]: > 400 µM
IC50 ([3]; ex vivo, INC-5 strain, 24 h at 4 °C, read-out: T.cruzi blood trypomastigote IC50 INC-5): 21.3 ± 0.09 µM
IC50 ([3]; rounded value in the discussion, refers to Table 3, strain not stated, read-out: IC50, inhibitor of T. cruzi trypomastigotes): 21 µM
Parasitemia inhibition percentage over the time, 2 horas INC-5 ([4]; 100 mg/kg oral, 2 horas, INC-5): 100
Parasitemia inhibition percentage over the time, 4 horas INC-5 ([4]; 100 mg/kg oral, 4 horas, INC-5): 75
Parasitemia inhibition percentage over the time, 6 horas INC-5 ([4]; 100 mg/kg oral, 6 horas (first column so headed), INC-5): 62.5
Parasitemia inhibition percentage over the time, 6 horas INC-5 ([4]; 100 mg/kg oral, 6 horas (second, last column so headed), INC-5): 56.2
parasitemia inhibition ([4]; mice infected with INC-5 strain, single oral dose 100 mg/kg, eight hours after administration): 43.8%
Parasitemia inhibition percentage over the time, 2 horas Ninoa ([5]; 100 mg/kg oral, 2 horas, Ninoa): 100
Parasitemia inhibition percentage over the time, 4 horas Ninoa ([5]; 100 mg/kg oral, 4 horas, Ninoa): 50
Parasitemia inhibition percentage over the time, 6 horas Ninoa ([5]; 100 mg/kg oral, 6 horas (first column so headed), Ninoa): 33.3
Parasitemia inhibition percentage over the time, 6 horas Ninoa ([5]; 100 mg/kg oral, 6 horas (second, last column so headed), Ninoa): 33.3
parasitemia inhibition ([5]; mice infected with Ninoa strain, single oral dose 100 mg/kg, eight hours after administration): 66.7%
IC50 [6]: > 400 µM
IC50 [7]: 25.7 ± 0.04 µM

CCc1nc(N)nc(N)c1-c1ccc(Cl)cc1 [Pyrimethamine]
EC50 [8]: 3.8 µM
Trypan. Activity [9]: ++
Ki [10]: 0.1 µM

Cc1cn([C@H]2C[C@H](N=[N+]=[N-])[C@@H](CO)O2)c(=O)[nH]c1=O [Zidovudine]
Trypan. Activity [9]: ++
inhibition of T. cruzi reverse transcriptase [11]: does not inhibit
